Measured values from patent publication US9072741B2, “Methods of treating liver fibrosis and pre-cirrhosis with epidermal growth factor receptor inhibitors” (The General Hospital Corporation, priority 2009, dated 2015).
“And” between values parts separate entries of the source, which are not always exact repeats. Equal values may be shown once. Marks after values point to notes of the source that are not given here.

Tests used:
[1] = tested on: advanced HCC; conditions: recent clinical trials (Philip et al.; Thomas et al.); cited from earlier work
[2] = tested on: DEN-induced hepatotoxicity and liver failure; experiment: Liver function tests on serum (AST, TBIL, Glu) of DEN-treated rats; format: in vivo, male Wistar rats; conditions: n=4
Description: FIGS. 4A, 4B, and 4C are a series of three bar graphs showing the levels of (A) aspartate transaminase (AST), (B) total bilirubin (TBIL), and (C) total glucose (Glu) in serum from rats treated with PBS for 18 weeks or DEN (50 mg/kg) for 18 weeks plus either vehicle, 0.5 mg/kg erlotinib (Erl 0.5), or 2 mg/kg erlotinib (Erl 2) during weeks 12-18. *, significant.
FIGS. 7A, 7B, and 7C are a series of three bar graphs showing levels of (A) aspartate transaminase (AST), (B) total bilirubin (TBIL), and (C) total glucose (Glu) in serum from rats treated with DEN (50 mg/kg) for 18 weeks plus either vehicle or 18 mg/kg lapatinib during weeks 12-18. *, significant.
During fibrosis, hepatic stellate cells are activated and deposit fibrous collagen into the space of Disse, the area between the hepatocytes and the sinusoid containing blood plasma. The deposition of collagen inhibits the normal exchange of nutrients and wastes between the hepatocytes and plasma resulting in hepatotoxicity and liver failure. The degree of liver toxicity and failure can be assessed by measuring several proteins or a carbohydrate present in the serum. For example, aspartate aminotransferase (AST) is an enzyme present in hepatocytes that is released into the serum when hepatocytes die. Bilirubin (TBIL) is the breakdown product of heme and its levels become elevated in the serum if hepatocytes cannot properly metabolize it. Finally, liver failure will result in lower levels of glucose (Glu) production causing serum Glu levels to drop.
The levels of AST, TBIL, and Glu were assayed in serum from rats treated with erlotinib. Male Wistar rats (n=4) were treated with PBS for 18 weeks or a weekly intraperitoneal injection of 50 mg/kg DEN for 18 weeks plus either vehicle, 0.5 mg/kg erlotinib (Erl 0.5), or 2 mg/kg erlotinib (Erl 2) between weeks 12 and 18. Whole blood was isolated from the rats and allowed to clot for 2 hours at room temperature. The blood was then spun at 2,000 rpm for 10 minutes and serum (top layer) was isolated. Liver function tests were performed on serum from the rats. In the current model, intraperitoneal administration of DEN causes both hepatotoxicity and liver failure to increase over time as assessed by these three markers. However, compared to vehicle controls, erlotinib reduced the degree of hepatotoxicity and liver failure in a dose-dependent fashion. Specifically, erlotinib decreased serum levels of AST and TBIL and increased serum levels of Glu (FIGS. 4A-C).
Levels of AST, TBIL, and Glu were assayed in serum from rats treated with lapatinib. Male Wistar rats (n=4) were treated with PBS for 18 weeks or a weekly intraperitoneal injection of 50 mg/kg DEN for 18 weeks plus either vehicle or 18 mg/kg lapatinib between weeks 12 and 18. Whole blood was isolated from the rats and allowed to clot for 2 hours at room temperature. The blood was then spun at 2,000 rpm for 10 minutes and serum (top layer) was isolated. Liver function tests were performed on serum from the rats. In the current model, intraperitoneal administration of DEN causes both hepatotoxicity and liver failure to increase over time as assessed by these three markers. However, compared to vehicle controls, lapatinib reduced the degree of hepatotoxicity and liver failure. Specifically, lapatinib decreased serum levels of AST and TBIL and increased serum levels of Glu (FIGS. 7A-C).

[3] = tested on: DEN-induced fibrosis and cirrhosis; experiment: DEN-treated rats with liver biopsy before and after treatment (disease progression within the same animal); format: in vivo, male Wistar rats
Description: FIG. 3A is a scheme of the experiment. Male Wistar rats received weekly intraperitoneal injections of DEN (50 mg/kg) for 18 weeks. After 12 weeks, the rats underwent a survival hepatectomy and a liver biopsy was removed for histology. Rats then received vehicle or erlotinib (2 mg/kg) daily (5 days/week) during weeks 13-18. Rats were sacrificed at 19 weeks after a one-week washout of DEN. FIG. 3B is a bar graph showing Ishak scores from Masson's trichrome stains of liver sections from each animal. **p<0.01 compared to vehicle. FIG. 3C is a bar graph depicting the number of tumor nodules that were greater than 5 mm in diameter in rats that received vehicle or erlotinib. **p<0.01 compared to vehicle. FIG. 3D is a bar graph showing the weights of livers at the time of sacrifice expressed as percent body weight.
To further examine the ability of erlotinib to reverse fibrosis and cirrhosis, liver biopsies were performed on DEN-treated rats before and after they received erlotinib (FIG. 3A) to determine disease progression within the same animal.

[4] = 0.5 and 2 mg/kg weeks 12-18 vs vehicle, dose-dependent
[5] = 18 mg/kg weeks 12-18 vs vehicle

In the case of C#Cc1cccc(Nc2ncnc3cc(OCCOC)c(OCCOC)cc23)c1 [erlotinib, 4-Quinazolinamine, N-(3-ethynylphenyl)-6,7-bis(2-methoxyethoxy)], the “disease control in advanced HCC patients” value [1] is listed as “improved disease control in only a minority”, the “serum level of AST” value [2, 4] is listed as “decreased” and the “serum level of Glu” value [2, 4] is listed as “increased”. For the same molecule, the “serum level of TBIL” value [2, 4] was “decreased”, the “animals with reversed disease progression” value ([3]; 2 mg/kg weeks 13-18, eight animals) was “two out of eight” and the “fibrosis and cirrhosis (Ishak, FIG. 3B)” value ([3]; 2 mg/kg weeks 13-18 vs vehicle) was “significantly less fibrosis and cirrhosis”. For the same molecule, the “tumorigenesis (tumor nodules greater than 5 mm, FIG. 3C)” value ([3]; 2 mg/kg weeks 13-18 vs vehicle) was “significant decrease in tumorigenesis”, the “liver weight (percent body weight, FIG. 3D)” value ([3]; 2 mg/kg weeks 13-18 vs vehicle, at sacrifice) was “decrease in liver weight” and the “Ishak 19 weeks, AVERAGE” value ([3]; average of 8 rats after 2 mg/kg weeks 13-18, vehicle 5.8) was 4.3*. The “Change of Ishak score, AVERAGE” value ([3]; average of 8 rats, 2 mg/kg weeks 13-18, vehicle +2.2) was “+1”, the “Ishak 13 weeks, AVERAGE” value ([3]; average of 8 rats, biopsy before treatment, vehicle 3.6) was 3.3 and the “Change of Ishak score” value ([3]; individual rats, 19 weeks vs 13 weeks, 2 mg/kg weeks 13-18, 2 mg/kg) was “+3 and +2 (3×) and −2 and −1 and +1 (2×)”. For the same molecule, the “Ishak 19 weeks” value ([3]; individual rats, after 2 mg/kg daily (5 days/week) weeks 13-18) was 6 and 5 (2×) and 4 (3×) and 3 (2×) and the “Ishak 13 weeks” value ([3]; individual rats, biopsy before treatment (baseline)) was 3 (4×) and 2 (2×) and 5 (2×).
For CS(=O)(=O)CCNCc1ccc(-c2ccc3ncnc(Nc4ccc(OCc5cccc(F)c5)c(Cl)c4)c3c2)o1 [lapatinib, 4-Quinazolinamine, N-(3-chloro-4-((3-fluorophenyl)methoxy)phenyl)-6-(5-(((2-(methylsulfonyl)ethyl)amino)methyl)-2-furanyl)], the “serum level of AST” value [2, 5] was “decreased”, the “serum level of Glu” value [2, 5] was “increased” and the “serum level of TBIL” value [2, 5] was “decreased”.
